Measured values: ChEMBL document CHEMBL1201862, “PubChem BioAssay data set” (2004)
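48-hour exposure; five concentrations; linearly interpolated endpoints. GI50 marks 50% less growth.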 Activity calls are given as the source filed them. No stated cut-off is given here; in the data, active = GI50 up to about 1.1 µM and inactive = higher.

What was measured:
Test in all cases: inhibition of tumour cell growth, NCI panel, 48 h
SK-MEL-2 = tested on: SK-MEL-2
HT-29 = tested on: HT-29
IGROV-1 = tested on: IGROV-1
Hs-578T = tested on: Hs-578T
OVCAR-3 = tested on: OVCAR-3
DU-145 = tested on: DU-145
MOLT-4 = tested on: MOLT-4
786-0 = tested on: 786-0
SF-295 = tested on: SF-295
NCI-H460 = tested on: NCI-H460
SK-MEL-5 = tested on: SK-MEL-5
SK-MEL-28 = tested on: SK-MEL-28
TK-10 = tested on: TK-10
PC-3 = tested on: PC-3
HCT-116 = tested on: HCT-116
UACC-62 = tested on: UACC-62
CCRF-CEM = tested on: CCRF-CEM
COLO 205 = tested on: COLO 205

CC1=NN(c2cccc(Cl)c2)C2(SCC(=O)N2c2nc3ccccc3s2)/C1=C\c1cccs1 (configuration not stated)
GI50 (SK-MEL-2): 18.8 µM (inactive)
GI50 (HT-29): 21.6 µM (inactive)
GI50 (IGROV-1): 27.3 µM (inactive)
GI50 (Hs-578T): 22.5 µM (inactive)
GI50 (OVCAR-3): 24.8 µM (inactive)
GI50 (DU-145): 46.5 µM (inactive)
GI50 (MOLT-4): 11.4 µM (inactive)
GI50 (786-0): 19.5 µM (inactive)
GI50 (SF-295): 27.4 µM (inactive)
GI50 (NCI-H460): 27.2 µM (inactive)
GI50 (SK-MEL-5): 18.1 µM (inactive)
GI50 (SK-MEL-28): 29.4 µM (inactive)
GI50 (TK-10): 31.7 µM (inactive)
GI50 (PC-3): 25.5 µM (inactive)
GI50 (HCT-116): 20.6 µM (inactive)

CC(=O)OC1CC2C(=O)C(=O)C1(C)C2(C)C (configuration not stated)
GI50 (HT-29): > 100 µM (inactive)
GI50 (IGROV-1): > 100 µM (inactive)
GI50 (OVCAR-3): > 100 µM (inactive)
GI50 (UACC-62): > 100 µM (inactive)
GI50 (DU-145): > 100 µM (inactive)
GI50 (MOLT-4): > 100 µM (inactive)
GI50 (786-0): > 100 µM (inactive)
GI50 (SF-295): > 100 µM (inactive)
GI50 (NCI-H460): > 100 µM (inactive)
GI50 (CCRF-CEM): > 100 µM (inactive)
GI50 (COLO 205): > 100 µM (inactive)
GI50 (SK-MEL-5): > 100 µM (inactive)
GI50 (SK-MEL-28): > 100 µM (inactive)
GI50 (TK-10): > 100 µM (inactive)
GI50 (PC-3): > 100 µM (inactive)
GI50 (HCT-116): > 100 µM (inactive)

CC(C)C1(Cl)CCC2C3(C)CCCC(C)(C(=O)O)C3CC(Cl)C2(Cl)C1Cl (configuration not stated)
GI50 (SK-MEL-2): 31.4 µM (inactive)
GI50 (HT-29): 14.7 µM (inactive)
GI50 (IGROV-1): 54.7 µM (inactive)
GI50 (Hs-578T): 37.5 µM (inactive)
GI50 (UACC-62): 24.7 µM (inactive)
GI50 (MOLT-4): 19.4 µM (inactive)
GI50 (786-0): 32.6 µM (inactive)
GI50 (NCI-H460): 23.9 µM (inactive)
GI50 (CCRF-CEM): 22.8 µM (inactive)
GI50 (COLO 205): 18 µM (inactive)
GI50 (SK-MEL-5): 25.8 µM (inactive)
GI50 (SK-MEL-28): 16.7 µM (inactive)
GI50 (TK-10): 43.3 µM (inactive)
GI50 (PC-3): 34.6 µM (inactive)
GI50 (HCT-116): 28.2 µM (inactive)

C=CCn1c2ccccc2[n+]2cc([N+](=O)[O-])ccc12
GI50 (SK-MEL-2): 27.2 µM (inactive)
GI50 (HT-29): 18.3 µM (inactive)
GI50 (IGROV-1): 21.3 µM (inactive)
GI50 (OVCAR-3): 24.5 µM (inactive)
GI50 (UACC-62): 28.6 µM (inactive)
GI50 (DU-145): 50.9 µM (inactive)
GI50 (MOLT-4): 28.2 µM (inactive)
GI50 (786-0): 46.2 µM (inactive)
GI50 (SF-295): > 100 µM (inactive)
GI50 (CCRF-CEM): 20.9 µM (inactive)
GI50 (COLO 205): 12.3 µM (inactive)
GI50 (SK-MEL-5): 22 µM (inactive)
GI50 (SK-MEL-28): 34.2 µM (inactive)
GI50 (TK-10): 61.7 µM (inactive)
GI50 (PC-3): 48.8 µM (inactive)
GI50 (HCT-116): 27.2 µM (inactive)

Cc1c2cccc-2c2cc(O)c3ccccc3c2n1-c1ccc(N(C)C)cc1
GI50 (SK-MEL-2): 16.7 µM (inactive)
GI50 (HT-29): 16.7 µM (inactive)
GI50 (IGROV-1): 2.59 µM (inactive)
GI50 (Hs-578T): 15 µM (inactive)
GI50 (OVCAR-3): 6.46 µM (inactive)
GI50 (UACC-62): 16 µM (inactive)
GI50 (786-0): 12.2 µM (inactive)
GI50 (SF-295): 10.1 µM (inactive)
GI50 (NCI-H460): 15.5 µM (inactive)
GI50 (CCRF-CEM): 9.77 µM (inactive)
GI50 (COLO 205): 16.1 µM (inactive)
GI50 (SK-MEL-5): 11.8 µM (inactive)
GI50 (SK-MEL-28): 17.2 µM (inactive)
GI50 (TK-10): 13 µM (inactive)
GI50 (PC-3): 11.7 µM (inactive)
GI50 (HCT-116): 15.7 µM (inactive)

CC(=O)CC(=O)Nn1c(-c2cccs2)nc2ccc(I)cc2c1=O
GI50 (SK-MEL-2): > 56.6 µM (inactive)
GI50 (HT-29): > 100 µM (inactive)
GI50 (IGROV-1): > 46.7 µM (inactive)
GI50 (OVCAR-3): > 40.7 µM (inactive)
GI50 (UACC-62): > 50.6 µM (inactive)
GI50 (DU-145): > 38.1 µM (inactive)
GI50 (MOLT-4): > 70.1 µM (inactive)
GI50 (786-0): > 65.9 µM (inactive)
GI50 (SF-295): > 54.7 µM (inactive)
GI50 (NCI-H460): > 56.1 µM (inactive)
GI50 (CCRF-CEM): > 46.8 µM (inactive)
GI50 (COLO 205): > 51.4 µM (inactive)
GI50 (SK-MEL-5): > 41.6 µM (inactive)
GI50 (SK-MEL-28): > 100 µM (inactive)
GI50 (TK-10): > 43.9 µM (inactive)
GI50 (PC-3): > 51.5 µM (inactive)
GI50 (HCT-116): > 60.1 µM (inactive)

Cc1[nH]c2ccccc2c1-c1cc(-c2cc(-c3c(C)[nH]c4ccccc34)nc(N)n2)nc(N)n1
GI50 (SK-MEL-2): > 100 µM (inactive)
GI50 (HT-29): > 100 µM (inactive)
GI50 (IGROV-1): > 100 µM (inactive)
GI50 (Hs-578T): > 100 µM (inactive)
GI50 (OVCAR-3): > 100 µM (inactive)
GI50 (UACC-62): > 100 µM (inactive)
GI50 (MOLT-4): > 100 µM (inactive)
GI50 (786-0): > 100 µM (inactive)
GI50 (SF-295): > 100 µM (inactive)
GI50 (NCI-H460): > 100 µM (inactive)
GI50 (COLO 205): > 100 µM (inactive)
GI50 (SK-MEL-5): > 100 µM (inactive)
GI50 (SK-MEL-28): > 100 µM (inactive)
GI50 (TK-10): > 100 µM (inactive)
GI50 (PC-3): > 100 µM (inactive)
GI50 (HCT-116): > 100 µM (inactive)

[N-]=[N+]=NCN1C(=O)C2C3C=CC(C2C1=O)C1C2C(=O)N(CN=[N+]=[N-])C(=O)C2C31 (configuration not stated)
GI50 (SK-MEL-2): > 100 µM (inactive)
GI50 (HT-29): > 100 µM (inactive)
GI50 (IGROV-1): > 100 µM (inactive)
GI50 (Hs-578T): > 100 µM (inactive)
GI50 (OVCAR-3): > 100 µM (inactive)
GI50 (UACC-62): > 100 µM (inactive)
GI50 (DU-145): > 100 µM (inactive)
GI50 (786-0): > 100 µM (inactive)
GI50 (SF-295): 60 µM (inactive)
GI50 (NCI-H460): > 100 µM (inactive)
GI50 (COLO 205): > 100 µM (inactive)
GI50 (SK-MEL-5): > 100 µM (inactive)
GI50 (SK-MEL-28): > 100 µM (inactive)
GI50 (TK-10): > 100 µM (inactive)
GI50 (PC-3): > 100 µM (inactive)
GI50 (HCT-116): > 100 µM (inactive)

O=[N+]([O-])c1ccc2nc3n(c2c1)C(c1c(F)cccc1F)SC3 (configuration not stated)
GI50 (HT-29): > 100 µM (inactive)
GI50 (IGROV-1): > 100 µM (inactive)
GI50 (Hs-578T): > 100 µM (inactive)
GI50 (OVCAR-3): > 100 µM (inactive)
GI50 (DU-145): > 100 µM (inactive)
GI50 (MOLT-4): > 100 µM (inactive)
GI50 (786-0): > 100 µM (inactive)
GI50 (SF-295): 89.5 µM (inactive)
GI50 (NCI-H460): > 100 µM (inactive)
GI50 (CCRF-CEM): > 100 µM (inactive)
GI50 (SK-MEL-5): > 10 µM (inactive)
GI50 (SK-MEL-28): > 100 µM (inactive)
GI50 (TK-10): > 100 µM (inactive)
GI50 (PC-3): > 100 µM (inactive)
GI50 (HCT-116): > 100 µM (inactive)

CC1(C)[C@@H]2C[C@H]1[C@@H](Cc1cccc(C[C@H]3c4cc(-c5ccccn5)ncc4[C@H]4C[C@@H]3C4(C)C)c1)c1cc(-c3ccccn3)ncc12
GI50 (SK-MEL-2): > 100 µM (inactive)
GI50 (HT-29): 3.17 µM (inactive)
GI50 (IGROV-1): 3.49 µM (inactive)
GI50 (OVCAR-3): > 30.5 µM (inactive)
GI50 (UACC-62): 2.92 µM (inactive)
GI50 (DU-145): 1.09 µM (active)
GI50 (MOLT-4): 1.41 µM (inactive)
GI50 (786-0): 2.1 µM (inactive)
GI50 (SF-295): 0.69 µM (active)
GI50 (NCI-H460): 0.889 µM (active)
GI50 (CCRF-CEM): 1.11 µM (active)
GI50 (COLO 205): 2.93 µM (inactive)
GI50 (SK-MEL-5): 3.36 µM (inactive)
GI50 (SK-MEL-28): 4.92 µM (inactive)
GI50 (TK-10): > 39.5 µM (inactive)
GI50 (PC-3): 12.6 µM (inactive)
GI50 (HCT-116): 1.09 µM (active)

O=C(NCc1cccc2ccccc12)N/N=C\c1ccc(Cl)cc1
GI50 (SK-MEL-2): > 100 µM (inactive)
GI50 (HT-29): > 100 µM (inactive)
GI50 (IGROV-1): > 100 µM (inactive)
GI50 (OVCAR-3): > 100 µM (inactive)
GI50 (UACC-62): > 100 µM (inactive)
GI50 (DU-145): > 100 µM (inactive)
GI50 (MOLT-4): > 100 µM (inactive)
GI50 (786-0): > 100 µM (inactive)
GI50 (SF-295): 53.5 µM (inactive)
GI50 (NCI-H460): 67 µM (inactive)
GI50 (CCRF-CEM): > 100 µM (inactive)
GI50 (COLO 205): > 100 µM (inactive)
GI50 (SK-MEL-5): 46 µM (inactive)
GI50 (SK-MEL-28): > 100 µM (inactive)
GI50 (TK-10): > 100 µM (inactive)
GI50 (PC-3): > 100 µM (inactive)
GI50 (HCT-116): > 100 µM (inactive)

C1CSCCSCCS1
GI50 (HT-29): > 100 µM (inactive)
GI50 (IGROV-1): > 100 µM (inactive)
GI50 (OVCAR-3): > 100 µM (inactive)
GI50 (UACC-62): > 100 µM (inactive)
GI50 (DU-145): > 100 µM (inactive)
GI50 (MOLT-4): > 100 µM (inactive)
GI50 (786-0): > 100 µM (inactive)
GI50 (SF-295): > 100 µM (inactive)
GI50 (NCI-H460): > 100 µM (inactive)
GI50 (CCRF-CEM): > 100 µM (inactive)
GI50 (COLO 205): > 100 µM (inactive)
GI50 (SK-MEL-5): > 100 µM (inactive)
GI50 (SK-MEL-28): > 100 µM (inactive)
GI50 (TK-10): > 100 µM (inactive)
GI50 (PC-3): > 100 µM (inactive)
GI50 (HCT-116): > 100 µM (inactive)
